Values joined by “and” are separate entries in the source; they are usually repeats but may differ in a detail not shown here. Equal entries are not always repeated.
Legend:
[1] = tested on: cardiac repolarization in healthy volunteers; test: Thorough QT/QTc (TQT) study (NCT04795479), cardiodynamic Holter ECG; conditions: for ΔΔQTcF Estimate (msec) (90% CI), predicted at geometric mean Cmax: PK/QTc population
From the text: These studies included a randomized, partial double-blind, placebo- and positive-controlled, multiple-dose, 4-way crossover, thorough QT/QTc (TQT) study to investigate the effect of relacorilant on cardiac repolarization. These studies measured placebo-corrected change-from-baseline QTcF (ΔΔQTcF); change-from-baseline of QTcF, HR, and PR and QRS intervals (ΔQTcF, ΔHR, ΔPR, and ΔQRS); placebo-corrected change-from-baseline of HR, and PR and QRS intervals (ΔΔHR, ΔΔPR, and ΔΔQRS); categorical outliers for QTcF, HR, and PR and QRS intervals; the frequency of treatment-emergent changes of T-wave morphology and presence of U-waves; PK parameters of relacorilant and its metabolites (CORT125337, CORT125336, and CORT125295) and moxifloxacin; safety profiles, including AEs/SAEs, physical examination, clinical chemistry, hematology, urinalysis, ECG, and vital signs.
A phase 1, randomized, partial double-blind, crossover thorough QT study (NCT04795479) to assess the effect of multiple doses of relacorilant on cardiac repolarization in healthy volunteers. Participants were randomized to dosing sequences to receive relacorilant at therapeutic (400 mg QD, n=25) or supra-therapeutic (800 mg QD, n=28) doses, or placebo (n=29) for 5 days. Moxifloxacin (400 mg single dose, n=28) was used as a positive control.
Each subject received 4 treatments in a randomized sequence during the study period. Each dosing consisted of 8 capsules (except for moxifloxacin on Day 5), including: • Treatment T: Multiple oral doses of 400 mg relacorilant (4 capsules)+placebo for relacorilant (4 capsules) once daily for 5 days; • Treatment ST: Multiple oral doses of 800 mg relacorilant (8 capsules) once daily for 5 days; • Treatment P: Multiple oral doses of placebo for relacorilant (8 capsules) once daily for 5 days; • Treatment M: Multiple oral doses of placebo for relacorilant (8 capsules) once daily for 4 days and a final single oral dose of 400 mg moxifloxacin (one tablet) on Day 5.
In a portion of present study conducted in healthy subjects, a single dose of moxifloxacin (400 mg; Treatment M) on the last day of its respective treatment period was included as a positive control to determine the sensitivity of the study to detect small QTc changes. Relacorilant doses included both a therapeutic dose level (400 mg; Treatment T) and a supra-therapeutic dose level (800 mg; Treatment ST). The study was blinded to subjects, investigator, study staff, and sponsor with respect to relacorilant (Treatments T and ST) and placebo for relacorilant (Treatment P); it was open-labeled for moxifloxacin (Treatment M). Enrolled subjects were randomized to one of twelve (12) dosing sequences to receive 4 different treatments according to the assigned dosing sequence as shown below:
In each period, subjects were admitted to the clinical site in the morning of Day-1 and stayed in the site until the morning of Day 6. In the study periods when subjects were randomized to Treatment T, ST, or P, the applicable study product (400 mg or 800 mg relacorilant or placebo for relacorilant) were taken once daily in the morning for 5 consecutive days. During the dosing period of positive control (Treatment M), placebo for relacorilant were administered on Days 1 to 4 to align with the dosing schedule for the other three treatments and moxifloxacin were administered in an open-labeled manner as a single dose in the morning of Day 5. Therefore, the treatment on Days 1 to 4 were double-blinded; it was not known before the morning on Day 5 whether or not a subject was allocated to receive moxifloxacin. Each dosing period (from Periods 2 to 4) was separated from the previous period by a washout period of at least 10 days from Day 6 of the previous period to Day 1 (first dose) of the subsequent period to prevent a carryover effect. The final visit was on Day 6 of Period 4. A safety phone follow-up was scheduled at 7 days (±2 days) post the final visit/early termination (ET) visit.

[2] = tested on: Cushing's syndrome patients; test: Separate study: relacorilant with another drug known to cause QT prolongation; type: in vivo, human; conditions: at least 12 patients also receiving fluoroquinoline, imidazole derivative, macrolide or protease inhibitor drug
patients with CS = test: Phase 2 CS study (NCT02804750), ECG / QTcF; type: in vivo, human
Procedure: A single-arm, open-label phase 2 study (NCT02804750) in patients with CS. 17 patients received low-dose relacorilant (100-200 mg QD) for 12 weeks; 18 patients received high-dose relacorilant (250-400 mg QD) for 16 weeks.
In all studies, ECG data were collected and the heart rate-corrected QT interval using Fridericia's formula (QTcF) was calculated. Participants with a family history of or risk factors for torsades de pointes or with a prolonged QT interval at screening were not eligible to participate. Exposure-response analysis of the effect of relacorilant on the heart-rate corrected QT interval (QTc) was conducted using a linear model with an intercept.
In a 3-part, single-center, First-in-Human study (NCT03508635, “phase 1 study”), 103 healthy volunteers received single or multiple ascending doses of relacorilant (up to 500 mg QD) for up to 14 days; 24 received placebo. In a randomized, partial double-blind, crossover Thorough QT study (NCT04795479, “TQT study”), the effect of multiple therapeutic (400 mg QD, n=25) and supra-therapeutic (800 mg QD, n=28) doses of relacorilant on cardiac repolarization was studied in healthy volunteers. A single dose of moxifloxacin (400 mg, n=28) was used as a positive control; 29 participants received placebo. In a single-arm, open-label phase 2 study (NCT02804750, “CS study”), 17 patients with CS received low-dose relacorilant (100-200 mg QD) for 12 weeks and 18 patients received high-dose relacorilant (250-400 mg QD) for 16 weeks. In all studies, ECG data were collected, and the heart rate-corrected QT interval using Fridericia's formula (QTcF) was assessed.

[3] = human, in vivo
Procedure: A phase 1, 3-part, single-center, First-in-Human study (NCT03508635) included 103 healthy volunteers who received single or multiple ascending doses (SAD/MAD) of relacorilant (up to 500 mg QD) for up to 14 days; 24 received placebo.
Relacorilant plasma concentration and QTcF data in the SAD and MAD phases were best fit with a linear model with treatment-specific intercepts. For both phases, the model-estimated slopes (90% CI) were slightly negative (SAD: −0.59[−2.14, 0.97]×10^−3 msec/ng/ml; MAD: −2.34[−3.16 to −1.52]×10^−3 msec/ng/ml). Therefore, a concentration-dependent effect of relacorilant on QTc prolongation was not identified.

In the case of `Cn1cc(S(=O)(=O)N2CCC3=Cc4c(cnn4-c4ccc(F)cc4)C[C@]3(C(=O)c3cc(C(F)(F)F)ccn3)C2)cn1` [relacorilant, ((R)-(1-(4-fluorophenyl)-6-((1-methyl-1H-pyrazol-4-yl)sulfonyl)-4,4a,5,6,7,8-hexahydro-1H-pyrazolo[3,4-g]isoquinolin-4a-yl)(4-(trifluoromethyl)pyridine-2-yl)methanone)], the “ΔΔQTcF Estimate (msec) (90% CI), predicted at geometric mean Cmax” value ([1]; 400 mg (Day 5)) is reported as -3.02 ms, the “ΔΔQTcF Estimate (msec) (90% CI), predicted at geometric mean Cmax” value ([1]; 400 mg (Day 5), listed as Relacorilant) is reported as −3.02 (−4.16, −1.88)^1 msec and the “effect on HR” value ([1]; 400 mg and 800 mg QD) is reported as “did not have a clinically relevant effect on HR”. The “ΔΔQTcF Estimate (msec) (90% CI), predicted at geometric mean Cmax” value ([1]; 800 mg (Day 5)) was -3.87 ms, the “ΔΔQTcF Estimate (msec) (90% CI), predicted at geometric mean Cmax” value ([1]; 800 mg (Day 5), listed as Relacorilant) was −3.87 (−5.56, −2.17)^1 msec and the “LS mean placebo-corrected ΔHR, highest across post-dose time points” value ([1]; 2 hours post-dose on Day 5, 800 mg treatment) was 2.4 bpm. The “LS mean placebo-corrected ΔHR, lowest across post-dose time points” value ([1]; 12 hours post-dose on Day 1, 800 mg treatment) was −3.2 bpm, the tolerability ([1]; Across all 3 studies (First-in-Human, TQT, and CS studies)) was “well tolerated” and the “effect on ΔΔQTcF exceeding the 10-msec threshold” value ([1]; concentration-QTc modeling, plasma concentrations up to ˜4500 ng/mL) was “excluded”. The “estimated slope (90% CI) of plasma concentration in the concentration-QTc relationship” value ([1]; linear mixed-effects model) was −0.97(−1.68, −0.25) ×10^−3 msec/ng/ml and −0.97 ×10^−3 msec/ng/ml, the “effect on ECG parameters” value ([1]; therapeutic (400 mg) and supra-therapeutic (800 mg) doses) was “no adverse effects on ECG parameters” and the QT prolongation [2] was “no clinically significant QT prolongation”. For the same compound, the hypokalemia (patients with CS; CS study) was “no instances”, the “abnormal sinus tachycardia, post-baseline ECG finding” value (“abnormal sinus tachycardia” for short) (patients with CS; high-dose group) was 11.1% and the “abnormal sinus tachycardia” value (patients with CS; high-dose group (18 patients)) was 2 patients. The “change in median QTcF” value (patients with CS; high-dose group, 250 to 400 mg/day, FIG. 6B) was “No significant changes”, the “abnormal sinus tachycardia” value (patients with CS; low-dose group) was 17.6% and the “abnormal sinus tachycardia” value (patients with CS; low-dose group (17 patients)) was 3 patients. For the same compound, the “change in median QTcF” value (patients with CS; low-dose group, 100 to 200 mg/day, FIG. 6A) was “No significant changes”, the “observed range of plasma concentrations, upper end” value [3] was “approximately 4000 ng/ml” and the “time of Cmax” value [3] was 2 h.

— patent US20240197716A1, “TREATMENTS FOR CUSHING'S SYNDROME THAT DO NOT SIGNIFICANTLY AFFECT CARDIAC RHYTHMS” (Corcept Therapeutics Incorporated, priority 2022, published 2024)
